Data: US20040042984A1, “Skin whitening composition containing arbutin and glucosidase as active ingredients” (priority 2001, published 2004)

Key:
[1] = Stability of the mixed composition by decoloration (absorbance at 400 nm); format: physicochemical; conditions: for Absorbance (400 nm): 100 mM, reacted 37° C. 10 minutes pH 5.0, TCA, supernatant incubated at 37° C. for 24 hours; for Discoloration rate (% of decoloring of hydroquinone solution): hydroquinone solution regarded as 100%, 37° C. for 24 hours
Procedure: The absorbency was measured at 400 nm and the degree of discoloring can be expressed in the ratio of the extent of arbutin solution to that of hydroquinone solution.
The formula stability of arbutin-glucosidase mixed formula compared with the hydroquinone only formula was examined by the decoloration. 100 mM arbutin and each 1, 10 and 20 unit/ml glucosidase were reacted in 1 ml of sodium acetate buffer (pH 5.0) at 37° C. for 10 minutes. The reaction was terminated by cooling down in the ice water. Then its mixed 1 ml of cold 20% Trichloroacetic acid (TCA) was added to remove glucosidase activity. The mixture was centrifuged at 12000 rpm. The supernatant solution incubated at 37° C. for 24 hours and the absorbency was measured at […]. The degree of decoloration of hydroquinone was regarded as 100% and the ratio of other samples compared to hydroquinone were calculated. As the control, 100 mM arbutin and 100 mM hydroquinone solution (sigma, USA) was used.

[2] = system: skin of the lower part of the volunteers' arms; assay: Occlusive patch test for primary skin irritation; format: in vivo, human; design: Response 24 h / Response 48 h: key to the marks not given beside the values; conditions: for skin irritation (in words): occlusive patch test
Procedure: In another preferred embodiments of this invention, the safety of this composition was tested by skin-irritation against the occlusive patch applied to healthy-adult volunteers. […] It is interpreted that the skin is more adaptable to the gradually increasing amount of irritant than the high concentration of irritant at a time.
The occlusive patch test was performed to examine skin irritation of the mixture of arbutin and glucosidase by 30 healthy adults. The test patches containing the solution of arbutin and glucosidase of preferred embodiment 2 were applied to the lower part of the volunteers' arms. After 24 hours, the patches were removed. The status of skin was observed from 30 minutes to 48 hours after removing the patches, and the degree of irritation has been classified as described in Table 3a.

| Absorbance (400 nm) [1] | Discoloration rate (% of decoloring of hydroquinone solution) [1] | Compound | skin irritation (in words) [2] | skin irritation (in words) ([2]; listed as hydroquinone composition) | Response 24 h ([2]; occlusive patch, 30 healthy adults, 24 h) | Response 48 h ([2]; occlusive patch, 30 healthy adults, 48 h) |
| --- | --- | --- | --- | --- | --- | --- |
| 0.005 | 1.40% | OC[C@H]1O[C@@H](Oc2ccc(O)cc2)[C@H](O)[C@@H](O)[C@@H]1O [Arbutin solution, Arbutin] |  |  |  |  |
| 0.356 | 100% | Oc1ccc(O)cc1 [Hydroquinone solution, Hydroquinone] | very strong skin irritation | showed the positive irritation | +++ | +++ |
